Test results reported in PubChem BioAssay AID256 (DTP/NCI, 2004).
“And” between values parts separate entries of the source, which are not always exact repeats. Identical values can stand only once. Toxic doses and inconclusive results are not listed.

Tested on: CD2F1 mice, L1210 leukemia ip, survival T/C
Experiment: NCI In Vivo Anticancer Drug Screen. Data for tumor model L1210 Leukemia (intraperitoneal) in CD2F1 (CDF1) mice
Settings: higher = longer survival
How it was run: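 Each value reflects a quotient of treated over vehicle control outcomes in mice with a transplanted tumor.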

Which T/C (endpoint: mean survival time, dose: 100.0 mg/kg/injection, schedule: Q04DX002 (ip), vehicle: saline) does the source give for O.O.O=S(=O)(O)O.[Co+3].[NH2-].[NH2-].[NH2-].[NH2-] here?
Its T/C is 108 % of control.

With NNC(=O)C(N)Cc1cnc[nH]1 (configuration not stated) as the compound, how does the T/C (endpoint: mean survival time, dose: 50.0 mg/kg/injection, schedule: Q04DX002 (ip), vehicle: saline with Tween-80) read?
Its T/C is 100 % of control.

And the T/C (endpoint: mean survival time, dose: 100.0 mg/kg/injection, schedule: Q04DX002 (ip), vehicle: saline with Tween-80)?
Its T/C is 100 % of control.

And the T/C (endpoint: mean survival time, dose: 200.0 mg/kg/injection, schedule: Q04DX002 (ip), vehicle: saline with Tween-80)?
The T/C was 122 % of control.

What about the T/C (endpoint: mean survival time, dose: 400.0 mg/kg/injection, schedule: Q04DX002 (ip), vehicle: saline with Tween-80) of the same compound?
The T/C was 118 % of control.

With NNC(=O)c1nnc(NN)[nH]c1=O as the compound, how does the T/C (endpoint: mean survival time, dose: 100.0 mg/kg/injection, schedule: Q01DX001 (ip), vehicle: carboxymethylcellulose (CMC)) read?
Its T/C is 102 % of control.

And the T/C (endpoint: mean survival time, dose: 200.0 mg/kg/injection, schedule: Q01DX001 (ip), vehicle: carboxymethylcellulose (CMC))?
Its T/C is 100 % of control.

What about the T/C (endpoint: mean survival time, dose: 400.0 mg/kg/injection, schedule: Q01DX001 (ip), vehicle: carboxymethylcellulose (CMC)) of the same compound?
Its T/C is 93 % of control.

Which results are given for C/[N+]([O-])=C/C1OC(n2ccc(=O)[nH]c2=O)C2OC(C)(C)OC12 (configuration not stated)?
T/C (endpoint: median survival time, dose: 21.38 mg/kg/injection, schedule: Q01DX005 (ip), vehicle: saline): 106 % of control; T/C (endpoint: median survival time, dose: 42.75 mg/kg/injection, schedule: Q01DX005 (ip), vehicle: saline): 100 % of control; T/C (endpoint: median survival time, dose: 85.5 mg/kg/injection, schedule: Q01DX005 (ip), vehicle: saline): 100 % of control; T/C (endpoint: median survival time, dose: 171.0 mg/kg/injection, schedule: Q01DX005 (ip), vehicle: saline): 107 % of control

Which T/C (endpoint: mean survival time, dose: 0.25 mg/kg/injection, schedule: Q01DX009 (ip), vehicle: saline with Tween-80) does the source give for CC1=CC(=O)[C@@H](O)[C@]2(C)[C@H]3[C@@]4(O)OC[C@]35[C@H]([C@@H](C)[C@H]4O)[C@@H](OC(=O)c3ccccc3)C(=O)O[C@@H]5C[C@@H]12 here?
Its T/C is 105 % of control.

And the T/C (endpoint: mean survival time, dose: 0.5 mg/kg/injection, schedule: Q01DX009 (ip), vehicle: saline with Tween-80)?
The T/C was 100 % of control.

What about the T/C (endpoint: mean survival time, dose: 1.0 mg/kg/injection, schedule: Q01DX009 (ip), vehicle: saline with Tween-80) of the same compound?
The T/C was 100 % of control.

What about the T/C (endpoint: mean survival time, dose: 2.0 mg/kg/injection, schedule: Q01DX009 (ip), vehicle: saline with Tween-80) of the same compound?
Its T/C is 105 % of control.

For O=C(OCc1ccccc1)OC1C2COC(O2)C(OC(=O)OCc2ccccc2)C1O (configuration not stated), which T/C (endpoint: mean survival time, dose: 100.0 mg/kg/injection, schedule: Q01DX009 (ip), vehicle: saline with Tween-80) is on record?
The T/C was 95 % of control.

And the T/C (endpoint: mean survival time, dose: 200.0 mg/kg/injection, schedule: Q01DX009 (ip), vehicle: saline with Tween-80)?
The T/C was 95 % of control.

What about the T/C (endpoint: mean survival time, dose: 400.0 mg/kg/injection, schedule: Q01DX009 (ip), vehicle: saline with Tween-80) of the same compound?
Its T/C is 89 % of control.

With O=P(O)(O)OCC(O)CCl (configuration not stated) as the compound, how does the T/C (endpoint: mean survival time, dose: 100.0 mg/kg/injection, schedule: Q01DX009 (ip), vehicle: saline) read?
Its T/C is 96 % of control.

And the T/C (endpoint: mean survival time, dose: 100.0 mg/kg/injection, schedule: Q04DX003 (ip), vehicle: saline)?
Its T/C is 100 % of control.

What about the T/C (endpoint: mean survival time, dose: 200.0 mg/kg/injection, schedule: Q01DX009 (ip), vehicle: saline) of the same compound?
Its T/C is 92 % of control.

What about the T/C (endpoint: mean survival time, dose: 200.0 mg/kg/injection, schedule: Q04DX003 (ip), vehicle: saline) of the same compound?
The T/C was 91 % of control.

What about the T/C (endpoint: mean survival time, dose: 400.0 mg/kg/injection, schedule: Q04DX003 (ip), vehicle: saline) of the same compound?
Its T/C is 103 % of control.

Which results are given for CC(CN1CC(=O)NC(=O)C1)N1CC(=O)NC(=O)C1 (configuration not stated)?
T/C (endpoint: mean survival time, dose: 4.0 mg/kg/injection, schedule: Q01DX009 (ip), vehicle: saline): 112 % of control; T/C (endpoint: mean survival time, dose: 8.0 mg/kg/injection, schedule: Q01DX009 (ip), vehicle: saline): 123 % of control; T/C (endpoint: mean survival time, dose: 32.0 mg/kg/injection, schedule: Q01DX009 (ip), vehicle: saline): 158 % of control; T/C (endpoint: mean survival time, dose: 32.0 mg/kg/injection, schedule: Q04DX003 (ip), vehicle: saline): 117 % of control; T/C (endpoint: mean survival time, dose: 50.0 mg/kg/injection, schedule: Q01DX001 (ip), vehicle: saline): 96 % of control; T/C (endpoint: mean survival time, dose: 64.0 mg/kg/injection, schedule: Q01DX009 (ip), vehicle: saline): 124 % of control; T/C (endpoint: mean survival time, dose: 128.0 mg/kg/injection, schedule: Q01DX009 (ip), vehicle: saline): 104 % of control; T/C (endpoint: mean survival time, dose: 256.0 mg/kg/injection, schedule: Q04DX003 (ip), vehicle: saline): 196 % of control; T/C (endpoint: mean survival time, dose: 512.0 mg/kg/injection, schedule: Q04DX003 (ip), vehicle: saline): 251 % of control; T/C (endpoint: median survival time, dose: 180.0 mg/kg/injection, schedule: Q04DX003 (ip), vehicle: Klucel (hydroxypropylcellulose) (HPC)): 169 % of control and 170 % of control; T/C (endpoint: median survival time, dose: 300.0 mg/kg/injection, schedule: Q04DX003 (ip), vehicle: Klucel (hydroxypropylcellulose) (HPC)): 236 % of control; T/C (endpoint: median survival time, dose: 500.0 mg/kg/injection, schedule: Q04DX003 (ip), vehicle: Klucel (hydroxypropylcellulose) (HPC)): 122 % of control

Which results are given for CN(C)c1ccc(C(O)C(N)=O)cc1 (configuration not stated)?
T/C (endpoint: mean survival time, dose: 6.25 mg/kg/injection, schedule: Q01DX009 (ip), vehicle: saline): 94 % of control; T/C (endpoint: mean survival time, dose: 6.25 mg/kg/injection, schedule: Q04DX003 (ip), vehicle: saline): 102 % of control; T/C (endpoint: mean survival time, dose: 12.5 mg/kg/injection, schedule: Q01DX009 (ip), vehicle: saline): 94 % of control; T/C (endpoint: mean survival time, dose: 12.5 mg/kg/injection, schedule: Q04DX003 (ip), vehicle: saline): 95 % of control; T/C (endpoint: mean survival time, dose: 25.0 mg/kg/injection, schedule: Q01DX009 (ip), vehicle: saline): 93 % of control; T/C (endpoint: mean survival time, dose: 25.0 mg/kg/injection, schedule: Q04DX003 (ip), vehicle: saline): 106 % of control
